Results as given in ChEMBL document CHEMBL1811852, “In vitro cytotoxic activity of abietane diterpenes from Peltodon longipes as well as Salvia miltiorrhiza and Salvia sahendica” (Bioorg Med Chem, 2011).

Legend:
MIA PaCa-2 = experiment: Cytotoxicity against human MIAPaCa2 cells after 24 hrs by MTT assay; type: functional, cell-based; settings: MIA PaCa-2, 24 h
[1] = Cytotoxicity against human MV-3 cells after 24 hrs by MTT assay; type: functional, cell-based; settings: MV-3, 24 h

`C[C@H]1COC2=C1C(=O)C(=O)c1c2ccc2c1CCCC2(C)C` [CRYPTOTANSHINONE] gave an IC50 (MIA PaCa-2) of 5.8 µM.
`CC(C)C1=C(O)C(=O)c2c(ccc3c2CCCC3(C)C)C1=O` [DEOXYNEOCRYPTOTANSHINONE] gave an IC50 (MIA PaCa-2) of over 100 µM and an IC50 [1] of over 150 µM.
For `CC1=CCCc2c1ccc1c2C(=O)C(=O)c2c(C)coc2-1`, the IC50 (MIA PaCa-2) was 5.6 µM.
`CC(=O)O[C@@H]1C[C@H]2C(C)(C)CCC[C@]2(C)C2=C1C(=O)C(C(C)C)=C(O)C2=O` gave an IC50 (MIA PaCa-2) of 4.7 µM and an IC50 [1] of 7.4 µM.
In the case of `COc1c(O)c(C(C)C)cc2c1[C@@]1(C)CCCC(C)(C)[C@@H]1CC2=O`, the IC50 (MIA PaCa-2) is reported as 34.9 µM and the IC50 [1] is reported as 32.3 µM.
`CC(C)C1=C(O)C(=O)C2=C(C(=O)C[C@H]3C(C)(C)CCC[C@]23C)C1=O` showed an IC50 (MIA PaCa-2) of 30.1 µM and an IC50 [1] of 65.8 µM.
`COc1c(O)c2c(c(O)c1C(C)C)C(=O)C[C@H]1C(C)(C)CCC[C@]21C` [INUROYLEANOL] gave an IC50 (MIA PaCa-2) of over 80 µM and an IC50 [1] of over 120 µM.
Work on `CC(C)C1=C(O)C(=O)C2=C(CC[C@H]3C(C)(C)CCC[C@]23C)C1=O` [ROYLEANONE] yielded an IC50 (MIA PaCa-2) of 32.5 µM and an IC50 [1] of over 80 µM.
`COc1c(C(C)C)cc2c(c1O)[C@@]1(C)CCCC(C)(C)[C@@H]1[C@@H](O)C2` [IGUESTOL] showed an IC50 (MIA PaCa-2) of 41.3 µM and an IC50 [1] of 65.9 µM.
With `CC(C)=CCCc1c(C)ccc2c1C(=O)C=C(C(C)C)C2=O` [SAHANDINONE] the IC50 (MIA PaCa-2) was 10.2 µM.
With `CC(C)C1=C(O)C(=O)C2=C(C1=O)[C@H](O)C[C@H]1C(C)(C)CCC[C@]21C` [HORMINONE] the IC50 (MIA PaCa-2) was 27.5 µM and the IC50 [1] was 16.7 µM.
Work on `CC(C)C1=Cc2ccc3c(c2C(=O)C1=O)CCCC3(C)C` [MILTIRONE] yielded an IC50 (MIA PaCa-2) of 22.5 µM.
In the case of `CCO[C@@H]1C[C@H]2C(C)(C)CCC[C@]2(C)C2=C1C(=O)C(C(C)C)=C(O)C2=O`, the IC50 (MIA PaCa-2) is reported as over 100 µM and the IC50 [1] is reported as over 80 µM.
Work on `COc1c(O)c(C(C)C)c(O)c2c1[C@@]1(C)CCCC(C)(C)[C@@H]1CC2=O` [ORTHOSIPHONOL] yielded an IC50 (MIA PaCa-2) of over 100 µM and an IC50 [1] of over 80 µM.
With `Cc1coc2c1C(=O)C(=O)c1c-2ccc2c(C)cccc12` [TANSHINONE I] the IC50 (MIA PaCa-2) was 10.5 µM.
`CC(C)c1cc2c(cc1O)[C@@]1(C)CCCC(C)(C)[C@@H]1CC2=O` [SUGIOL] showed an IC50 (MIA PaCa-2) of 17.9 µM and an IC50 [1] of 34.1 µM.
Work on `CC(C)c1cc2c(cc1O)[C@@]1(C)CCCC(C)(C)[C@@H]1CC2` [FERRUGINOL] yielded an IC50 (MIA PaCa-2) of 25.9 µM.
For `Cc1coc2c1C(=O)C(=O)c1c-2ccc2c1CCCC2(C)C` [TANSHINONE IIA], the IC50 (MIA PaCa-2) was 1.9 µM.
`CC(C)c1cc2ccc3c(c2c(O)c1O)C(=O)CCC3(C)C` [MILTIODIOL] showed an IC50 (MIA PaCa-2) of 66.3 µM.
In the case of `CC[C@@]1(O)C(=O)OCc2c1cc1n(c2=O)Cc2cc3ccccc3nc2-1` [CAMPTOTHECIN], the IC50 (MIA PaCa-2) is reported as 0.4 µM.
Work on `COc1c(C(C)C)cc2c(c1O)[C@@]1(C)CCCC(C)(C)[C@@H]1CC2=O` [CRYPTOJAPONOL] yielded an IC50 (MIA PaCa-2) of over 100 µM and an IC50 [1] of over 80 µM.
`CC(C)C1=Cc2ccc3c(c2C(=O)C1=O)C(=O)CCC3(C)C` gave an IC50 (MIA PaCa-2) of 29.9 µM.
